“And” between values parts separate entries of the source, which are not always exact repeats. Identical values can stand only once.
What was measured:
Assay in all cases: NCI one-dose screen
Format in all cases: cell-based, human
[1] = test system: 786-0; conditions: Renal 786-0, 10 µM single dose
Summary of the method: (§1)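 One concentration (10 μM) applied to each line of the full NCI-60 panel; percent growth compared against untreated cells.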

[2] = test system: A549/ATCC; conditions: NSCLC A549/ATCC, 10 µM single dose
Summary of the method: as §1

[3] = test system: BT-549; conditions: Breast BT-549, 10 µM single dose
Summary of the method: as §1

[4] = test system: CAKI-1; conditions: Renal CAKI-1, 10 µM single dose
Summary of the method: as §1

[5] = test system: CCRF-CEM; conditions: Leukemia CCRF-CEM, 10 µM single dose
Summary of the method: as §1

[6] = test system: DU-145; conditions: Prostate DU-145, 10 µM single dose
Summary of the method: as §1

[7] = test system: HCT-116; conditions: Colon HCT-116, 10 µM single dose
Summary of the method: as §1

[8] = test system: HCT-15; conditions: Colon HCT-15, 10 µM single dose
Summary of the method: as §1

[9] = test system: HL-60(TB); conditions: Leukemia HL-60(TB), 10 µM single dose
Summary of the method: (§2)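 At 10 μM, a single concentration, compounds were evaluated for antiproliferative effect in the NCI 60-line screen, with growth expressed relative to untreated control cells.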

[10] = test system: HOP-92; conditions: NSCLC HOP-92, 10 µM single dose
Summary of the method: as §1

[11] = test system: HS 578T; conditions: Breast HS 578T, 10 µM single dose
Summary of the method: as §1

[12] = test system: HT29; conditions: Colon HT29, 10 µM single dose
Summary of the method: as §1

[13] = test system: KM12; conditions: Colon KM12, 10 µM single dose
Summary of the method: as §2

[14] = test system: M14; conditions: Melanoma M14, 10 µM single dose
Summary of the method: as §1

[15] = test system: MDA-MB-435; conditions: Melanoma MDA-MB-435, 10 µM single dose
Summary of the method: as §1

[16] = test system: MOLT-4; conditions: Leukemia MOLT-4, 10 µM single dose
Summary of the method: as §2

[17] = test system: NCI-H23; conditions: NSCLC NCI-H23, 10 µM single dose
Summary of the method: as §2

[18] = test system: NCI-H322M; conditions: NSCLC NCI-H322M, 10 µM single dose
Summary of the method: as §1

[19] = test system: NCI-H522; conditions: NSCLC NCI-H522, 10 µM single dose
Summary of the method: (§3)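 In vitro antiproliferative testing: NCI-60 panel, initial single dose 10 μM, inhibition % derived from percent growth of treated versus untreated control cells.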

[20] = test system: NCI/ADR-RES; conditions: Ovarian NCI/ADR-RES, 10 µM single dose
Summary of the method: as §1

[21] = test system: OVCAR-3; conditions: Ovarian OVCAR-3, 10 µM single dose
Summary of the method: as §1

[22] = test system: OVCAR-4; conditions: Ovarian OVCAR-4, 10 µM single dose
Summary of the method: as §1

[23] = test system: OVCAR-8; conditions: Ovarian OVCAR-8, 10 µM single dose
Summary of the method: as §1

[24] = test system: RPMI-8226; conditions: Leukemia RPMI-8226, 10 µM single dose
Summary of the method: as §1

[25] = test system: SF-268; conditions: CNS SF-268, 10 µM single dose
Summary of the method: as §2

[26] = test system: SF-295; conditions: CNS SF-295, 10 µM single dose
Summary of the method: as §1

[27] = test system: SF-539; conditions: CNS SF-539, 10 µM single dose
Summary of the method: as §2

[28] = test system: SK-MEL-28; conditions: Melanoma SK-MEL-28, 10 µM single dose
Summary of the method: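 Following the standard NCI-60 protocol, compounds were applied once at 10 μM to all 60 cancer lines. Read-out is percent growth versus untreated controls, expressed as inhibition %.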

[29] = test system: SK-MEL-2; conditions: Melanoma SK-MEL-2, 10 µM single dose
Summary of the method: as §3

[30] = test system: SNB-19; conditions: CNS SNB-19, 10 µM single dose
Summary of the method: as §3

[31] = test system: SNB-75; conditions: CNS SNB-75, 10 µM single dose
Summary of the method: as §3

[32] = test system: SR; conditions: Leukemia SR, 10 µM single dose
Summary of the method: as §1

[33] = test system: TK-10; conditions: Renal TK-10, 10 µM single dose
Summary of the method: as §1

[34] = test system: U251; conditions: CNS U251, 10 µM single dose
Summary of the method: as §3

[35] = test system: UACC-62; conditions: Melanoma UACC-62, 10 µM single dose
Summary of the method: as §1

[36] = test system: UO-31; conditions: for Growth Percent: Renal UO-31, 10 µM single dose
Summary of the method: as §3

`Cc1c(C(=O)NCCC(=O)NO)sc2ncnc(Nc3ccc(NC(=O)Nc4ccccc4)cc3)c12` [Compound 11a, 1–(4-(6-((3-(hydroxyamino)-3-oxopropyl)carbamoyl)-5-methylthieno[2,3-d]pyrimidin-4-ylamino)phenyl)-3-phenylurea] was tested, and the “Growth Percent” value [1] was 98.2% and 98.21%, the “Growth Percent” value [2] was 97.7% and 97.77% and the “Growth Percent” value [3] was 104.9%. For the same molecule, the “Growth Percent” value [4] was 94.5% and 94.51%, the “Growth Percent” value [5] was 106.8% and 106.84% and the “Growth Percent” value [6] was 110.81%. The “Growth Percent” value [7] was 102.9% and 102.94%, the “Growth Percent” value [8] was 95.7% and 95.77% and the “Growth Percent” value [9] was 103.5% and 103.58%. For the same molecule, the “Growth Percent” value [10] was 106.7% and 106.72%, the “Growth Percent” value [11] was 99.6% and 99.62% and the “Growth Percent” value [12] was 104.0% and 104.03%. For the same molecule, the “Growth Percent” value [13] was 103.2% and 103.23%, the “Growth Percent” value [14] was 99.1% and 99.16% and the “Growth Percent” value [15] was 102.2% and 102.21%. The “Growth Percent” value [16] was 110.5% and 110.52%, the “Growth Percent” value [17] was 96.1% and 96.12% and the “Growth Percent” value [18] was 101.2% and 101.26%. The “Growth Percent” value [19] was 92.8%, the “Growth Percent” value [20] was 99.0% and 99.07% and the “Growth Percent” value [21] was 102.6% and 102.61%. For the same molecule, the “Growth Percent” value [22] was 101.4% and 101.41%, the “Growth Percent” value [23] was 101.0% and 101.03% and the “Growth Percent” value [24] was 109.4%. For the same molecule, the “Growth Percent” value [25] was 96.8% and 96.85%, the “Growth Percent” value [26] was 95.2% and 95.29% and the “Growth Percent” value [27] was 90.3% and 90.31%. The “Growth Percent” value [28] was 105.1% and 105.11%, the “Growth Percent” value [29] was 107.0% and 107.07% and the “Growth Percent” value [30] was 97.5% and 97.59%. For the same molecule, the “Growth Percent” value [31] was 79.7% and 79.72%, the “Growth Percent” value [32] was 108.7% and 108.77% and the “Growth Percent” value [33] was 97.6% and 97.69%. The “Growth Percent” value [34] was 96.9% and 96.93%, the “Growth Percent” value [35] was 98.7% and 98.79% and the “Growth Percent” value [36] was 83.7% and 83.77%.

`Cc1c(C(=O)NCCCC(=O)NO)sc2ncnc(Nc3ccc(F)c(Cl)c3)c12` [Compound 20d, 4–(3-chloro-4-fluorophenylamino)-N-(4-(hydroxyamino)-4-oxobutyl)-5-methylthieno[2,3-d]pyrimidine-6-carboxamide] was tested, and the “Growth Percent” value [1] was 104.6% and 104.67%, the “Growth Percent” value [2] was 94.0% and 94.08% and the “Growth Percent” value [3] was 117.9% and 117.96%. The “Growth Percent” value [4] was 92.1% and 92.19%, the “Growth Percent” value [5] was 107.9% and 107.95% and the “Growth Percent” value [6] was 109.9% and 109.99%. The “Growth Percent” value [7] was 105.9% and 105.97%, the “Growth Percent” value [8] was 99.6% and 99.67% and the “Growth Percent” value [9] was 104.6% and 104.62%. For the same molecule, the “Growth Percent” value [10] was 118.7% and 118.75%, the “Growth Percent” value [11] was 99.9% and 99.99% and the “Growth Percent” value [12] was 107.1% and 107.13%. For the same molecule, the “Growth Percent” value [13] was 101.5% and 101.54%, the “Growth Percent” value [14] was 102.6% and the “Growth Percent” value [15] was 101.6% and 101.67%. For the same molecule, the “Growth Percent” value [16] was 109.8% and 109.84%, the “Growth Percent” value [17] was 98.9% and 98.94% and the “Growth Percent” value [18] was 105.2% and 105.25%. The “Growth Percent” value [19] was 92.6% and 92.67%, the “Growth Percent” value [20] was 104.1% and 104.13% and the “Growth Percent” value [21] was 108.4% and 108.42%. For the same molecule, the “Growth Percent” value [22] was 104.8% and 104.88%, the “Growth Percent” value [23] was 99.6% and 99.61% and the “Growth Percent” value [24] was 108.7% and 108.75%. For the same molecule, the “Growth Percent” value [25] was 95.2%, the “Growth Percent” value [26] was 101.9% and the “Growth Percent” value [27] was 100.8% and 100.82%. The “Growth Percent” value [28] was 111.4% and 111.42%, the “Growth Percent” value [29] was 113.2% and 113.22% and the “Growth Percent” value [30] was 98.1% and 98.16%. The “Growth Percent” value [31] was 90.4% and 90.45%, the “Growth Percent” value [32] was 110.0% and 110.02% and the “Growth Percent” value [33] was 124.1% and 124.14%. The “Growth Percent” value [34] was 99.1% and 99.18%, the “Growth Percent” value [35] was 93.7% and 93.74% and the inhibition at 10 µM ([36]; Homo sapiens, renal UO-31, 10 μM) was 23.7%. For the same molecule, the “Growth Percent” value [36] was 76.3% and 76.32%.
